Measured values: article PMC7011955, “Synthesis and biological evaluation of certain hydrazonoindolin-2-one derivatives as new potent anti-proliferative agents” (Journal of Enzyme Inhibition and Medicinal Chemistry, 2018)
“Also recorded” adds a separate entry of the source. Like-named read-outs stand apart in the source and are kept apart here.

How the values were obtained:
[1] = test system: phosphorylated retinoblastoma (Rb) protein in A-549 cells; assay: Immunofluorescent imaging of phosphorylated Rb protein; format: cell-based, human; conditions: for levels of phosphorylated Rb protein: A-549, less than 100 nM to 50 µM; for IC50: Homo sapiens, A549
Description: (§1) Cell cycle effects of the synthesised compounds 7b and 10e were determined adopting the reported procedures[14]^,[15].
(§2) In this study, cancer cells derived from lung adenocarcinoma (A-549) were used to evaluate the effects of compounds 7b and 10e on various aspects of the cell cycle progression. Both immunofluorescent imaging of phosphorylated Rb protein and total DNA content of each cell were explored to determine the activity of compounds 7b and 10e over a range of concentrations less than 100 nM to 50 µM (Figures 3–5).

[2] = test system: A-549 cells; assay: Reduction in total cell number, DAPI labeling and imaging cytometry; format: cell-based; conditions: Homo sapiens, A549
Description: as §1, §2
Figure 3. Effects on number and cell cycle distribution. A-549 cells were treated with dose curve. Compound 7b (left) or 10e (right). […]

[3] = test system: NCI-H69AR cell line (expresses ABCC1 efflux pump); assay: Growth inhibition of multidrug resistant lung cancer cell line; format: cell-based
Description: (§3) The anti-proliferative activity of the title compounds 3a-e, 5a-e, 7a-c, and 10a-l towards cancer cell lines, normal cell lines, and multidrug-resistant lung cancer NCI-H69AR cell line was determined using CellTiter-Glo™ Luminescent cell viability assay according to the previously published procedures[14]^,[15].
The anti-proliferative activity of compounds 7b and 10e was evaluated towards multidrug resistant lung cancer cell line (NCI-H69AR), which expresses the ABCC1 efflux pump protein. […] Furthermore, the H69AR cells manifested a lesser degree of resistance to the reference drug, Sunitinib (1.9-fold less sensitive).

[4] = test system: breast cancer ZR-75 cell line; assay: CellTiter-Glo Luminescent cell viability assay, anti-proliferative activity, ZR-75; format: cell-based, human; conditions: Homo sapiens, ZR75, mean ± SD of four separate experiments
[5] = test system: lung cancer A-549 cell line; assay: CellTiter-Glo Luminescent cell viability assay, anti-proliferative activity, A-549; format: cell-based, human; conditions: Homo sapiens; for inhibition at 30 µM: A549, 30 µM single concentration, read-out: Growth inhibition % A-549
Description: as §3
(§4) The cancer cell growth inhibitory activity of the synthesised 25 compounds 3a-e, 5a-e, 7a-c, and 10a-l was evaluated in vitro towards three human cancer cell lines, namely lung cancer A-549, human colon cancer HT-29, and breast cancer ZR-75 cell lines using CellTiter-Glo™ Luminescent cell viability assay. Sunitinib was included in this assay as a reference drug.
(§5) The prepared hydrazonoindolin-2-ones were first evaluated at preliminary anti-proliferative assay against the three cancer cell lines in quadruplicate at a single concentration of 30 µM. The data presented as percentage growth inhibition (GI%) caused by the test compounds (Table 1).

[6] = test system: Intestine IEC-6 cells; assay: Cell growth inhibition, non-tumorigenic IEC-6; format: cell-based; conditions: Rattus norvegicus, maximum 25 µM, quadruplicate
Description: as §3
(§6) The cell growth inhibitory activity of compounds 7b and 10e was examined towards three non-tumorigenic cell lines to estimate their selectivity for tumor cells. A-549 human non-small cell lung cancer (NSCLC) cell line was included in the assay for comparison. […] IEC-6 cells derived from rat intestine show morphologic and karyotypic features of normal intestinal epithelial cells. Fibroblasts derived from embryonic tissue from mice (Swiss-3t3) are both non-tumorigenic and contact inhibited. Compounds 7b and 10e were tested quadruplicate at maximum concentrations of 25 µM, with subsequent 10 serially diluted concentrations.

[7] = test system: breast cancer ZR-75 cell line; assay: CellTiter-Glo Luminescent cell viability assay, anti-proliferative activity, ZR-75; format: cell-based; conditions: Homo sapiens, ZR75; 30 µM single concentration, quadruplicate; read-out: Growth inhibition % ZR-75
Description: as §3, §4, §5

[8] = test system: A-549, ZR-75 and HT-29 cell lines; assay: Average anti-proliferative activity over the three cancer cell lines; format: cell-based, human; conditions: average over A-549, ZR-75, HT-29; for Average growth inhibition % / inhibition at 30 µM: 30 µM; for inhibition at 30 µM / IC50: Homo sapiens; for inhibition at 30 µM: read-out: Average growth inhibition %
Description: as §3, §4, §5

[9] = test system: Breast MCF-10A cells; assay: Cell growth inhibition, non-tumorigenic MCF-10A; format: cell-based; conditions: Homo sapiens, maximum 25 µM, quadruplicate
Description: as §3, §6

[10] = test system: IEC-6, MCF-10A, Swiss-3t3 vs A-549 cell lines; assay: Mean tumor selectivity index, non-tumorigenic lines vs A-549; format: cell-based; conditions: non-tumorigenic IEC-6, MCF-10A
Source text: as §6

[11] = test system: A-549 cells; assay: Cell cycle distribution by DNA content; format: cell-based, human
Description: as §1, §2
Figure 3. Effects on number and cell cycle distribution. A-549 cells were treated with dose curve. Compound 7b (left) or 10e (right). Cell number per cell cycle was determined by DNA content by DAPI fluorescent labeling and imaging cytometry following 48 h treatment.

[12] = test system: colon cancer HT-29 cell line; assay: CellTiter-Glo Luminescent cell viability assay, anti-proliferative activity, HT-29; format: cell-based, human; conditions: Homo sapiens, HT-29; 30 µM single concentration, quadruplicate; read-out: Growth inhibition % HT-29
Description: as §3, §4, §5

[13] = test system: colon cancer HT-29 cell line; assay: as above; format: cell-based; conditions: Homo sapiens, mean ± SD of four separate experiments
[14] = test system: Fibroblast Swiss-3t3 cells; assay: Cell growth inhibition, non-tumorigenic Swiss-3t3; format: cell-based, mice; conditions: Mus musculus, maximum 25 µM, quadruplicate
Description: as §3, §6

[15] = A-549, 24 h treatment, read-out: IC50 for reduction in Rb phosphorylation, 24 h
[16] = A-549, 48 h treatment, read-out: IC50 for reduction in Rb phosphorylation, 48 h
[17] = A-549, 24 h treatment, read-out: IC50 for reductions in the total cell number, 24 h
[18] = A-549, 48 h treatment, read-out: IC50 for reductions in the total cell number, 48 h
[19] = A549, mean ± SD of four separate experiments, read-out: IC50 A-549
[20] = A549, selectivity assay, maximum 25 µM, quadruplicate, read-out: IC50 NSCLC A-549
[21] = A549, sensitive line in comparison with resistant NCI-H69AR, read-out: IC50 Sensitive A-549

Row | Compound | IC50 [1, 15] | IC50 [1, 16] | IC50 [2, 17] | IC50 [2, 18] | IC50 [3] | IC50 [4] | IC50 [5, 19] | IC50 [5, 20] | IC50 [5, 21] | IC50 [8] | melting point | IC50 [13] | levels of phosphorylated Rb protein [1] | inhibition at 30 µM ([5]; quadruplicate) | inhibition at 30 µM [7] | Average growth inhibition % [8] | inhibition at 30 µM [8] | Mean tumor selectivity [10] | Cell cycle effects [11] | inhibition at 30 µM [12] | also measured
1 | O=C1Nc2ccc(Br)cc2C1=NNc1nc(-c2ccccc2)cs1 [Compound 10i, 5-Bromo-3–(2-(4-phenylthiazol-2-yl)hydrazono)indolin-2-one] |  |  |  |  |  | 1.96 ± 0.85 µM | 6.13 ± 0.76 µM |  |  | 5.45 µM | 285 to 287 °C | 8.26 ± 0.86 µM |  | 92.3 ± 6.2% | 97.5 ± 3.1% | 95.4% | > 80% |  |  | 96.3 ± 5.9% | 
2 | Cc1ccc(-c2csc(NN=C3C(=O)Nc4ccc(Br)cc43)n2)cc1 [Compound 10j, 5-Bromo-3–(2-(4–(4-tolyl)thiazol-2-yl)hydrazono)indolin-2-one] |  |  |  |  |  | 10.9 ± 2.81 µM | 12.8 ± 1.4 µM |  |  | 13 µM | > 300 °C | 15.2 ± 1.1 µM |  | 85.9 ± 9.1% | 73.1 ± 3.5% | 83.0% | > 80% |  |  | 90.1 ± 5.3% | 
3 | O=C1Nc2ccc(Br)cc2C1=NNc1nc(-c2ccc(Cl)cc2)cs1 [Compound 10k, 5-Bromo-3–(2-(4–(4-chlorophenyl)thiazol-2-yl)hydrazono)indolin-2-one] |  |  |  |  |  | 3.61 µM | 20.1 ± 3.81 µM |  |  | 14.5 µM | > 300 °C | 19.8 ± 1.63 µM |  | 72.4 ± 3.5% | 50.6 ± 11.5% |  | 63.3% |  |  | 66.8 ± 19.1% | 
4 | CCN(CC)CCNC(=O)c1c(C)[nH]c(/C=C2\C(=O)Nc3ccc(F)cc32)c1C [Sunitinib, reference compound] | 3.18 ± 0.07 µM |  |  |  | 5.8 ± 0.52 µM |  | 10.1 ± 0.8 µM | 3.06 ± 0.9 µM | 3.1 ± 0.9 µM |  |  | 5.87 ± 0.3 µM |  | 59.5 ± 2.3% | 90.7 ± 4.5% |  | 78.7% | 1.4 | G1 decreased and G2/M-phases increased | 85.7 ± 2.7% | 

These reach a lower IC50 [5, 19]. Values come first.

Row | IC50 [1, 15] | IC50 [1, 16] | IC50 [2, 17] | IC50 [2, 18] | IC50 [3] | IC50 [4] | IC50 [5, 19] | IC50 [5, 20] | IC50 [5, 21] | IC50 [8] | melting point | IC50 [13] | Compound | levels of phosphorylated Rb protein [1] | inhibition at 30 µM ([5]; quadruplicate) | inhibition at 30 µM [7] | Average growth inhibition % [8] | inhibition at 30 µM [8] | Mean tumor selectivity [10] | Cell cycle effects [11] | inhibition at 30 µM [12] | also measured
5 | 7.59 ± 0.38 µM | 12.5 ± 2.1 µM | 7.38 ± 1.04 µM | 7.27 ± 1.15 µM | 16 µM | 1.95 ± 1.03 µM | 4.79 ± 0.45 µM | 4.13 ± 0.61 µM | 4.1 ± 0.61 µM | 4.66 µM | 292 to 294 °C | 7.25 ± 0.83 µM | O=C1Nc2ccc(Cl)cc2C1=NNc1nc(-c2ccccc2)cs1 [Compound 10e, 5-Chloro-3–(2-(4-phenylthiazol-2-yl)hydrazono)indolin-2-one] | significantly reduced in a dose-dependent manner | 80.4 ± 6% | 89.3 ± 7.2% | 85.1% | > 80% | 1.8 | increase in the percentage of cells in the G1 phase of the cell cycle with corresponding decreases in S- and G2/M phases; also recorded: G1 increased and G2/M-phases decreased | 85.7 ± 10.2% | IC50 [6]: 8.98 ± 1.25 µM; IC50 [9]: 5.37 ± 0.61 µM; IC50 [14]: 8.51 ± 1.01 µM
6 | 12.1 ± 0.6 µM | 13.6 ± 0.6 µM | 12.7 ± 13.6 µM | 8.08 ± 0.95 µM | 16 µM | 1.37 ± 0.23 µM | 2.29 ± 0.21 µM | 3.84 ± 0.67 µM | 3.8 ± 0.67 µM | 2.14 µM | > 300 °C | 2.75 ± 0.31 µM | O=C1Nc2ccc(Cl)cc2C1=NN=Cc1ccn[nH]1 [Compound 7b, 3-(((1H-pyrazol-5-yl)methylene)hydrazono)-5-chloroindolin-2-one] | significantly reduced in a dose-dependent manner | 91.5 ± 1.3% | 82.3 ± 15.2% | 89.6% | > 80% | 1.6 | decrease in the percentage of cells in the G1 phase of the cell cycle with corresponding increase in the G2/M-phases; also recorded: G1 decreased and G2/M-phases increased | 94.9 ± 1.8% | IC50 [6]: 8.7 ± 4.32 µM; IC50 [9]: 3.42 ± 0.45 µM; IC50 [14]: 6.85 ± 0.76 µM
